Measurements: publication PMC11787888, “Development and confirmation of humanized plasma and epithelial lining fluid exposures of meropenem, cefiderocol and tobramycin in a standardized neutropenic murine pneumonia model” (Journal of Antimicrobial Chemotherapy, 2024)
Values after ≈ are worked out from the molar mass of the structure shown. Read-outs that look alike come from different tables or passages of the source.

What was measured:
[1] = ELF pharmacokinetics in the COMBINE murine neutropenic pneumonia model; conditions: for k el: female, CD-1, mouse, epithelial lining fluid (ELF), sc; for K a-ELF (absorption rate constant into ELF compartment) / V ELF (volume of distribution in ELF compartment): best-fit one-compartment model
Procedure: (§1) The model followed the COMBINE protocol with laboratory-specific detailed methods as follows.[6] Specific pathogen free CD-1, female mice 6–8 weeks old were acquired from Charles River Laboratories, Inc. (Raleigh, NC, USA). All animals were allowed to acclimatize for 72 h before any study procedures and were housed as groups of six at controlled room temperature in HEPA-filtered cages (Innovive, San Diego, CA, USA). Study rooms were maintained with diurnal cycles (12 h light/12 h dark) and food and water were provided ad libitum.
(§2) Neutropenia was achieved through 0.2 mL intraperitoneal (IP) administrations of cyclophosphamide 150 mg/kg on day minus 4 and an additional 100 mg/kg on day minus 1. A predictable degree of renal impairment was produced using 5 mg/kg of uranyl nitrate (Electron Microscopy Sciences, Hatfield, PA, USA) dissolved in sterile water administered as a 0.2 mL IP injection on day minus 3. […] Mice were anaesthetised using inhaled isoflurane, manually restrained upright and infected with 50 µL of bacterial suspension via the nares. Each bacterial inoculation suspension was used within 30 minutes of initial preparation.
(§3) The purpose of these studies was to establish HSRs in both plasma and ELF in the COMBINE murine neutropenic pneumonia model equivalent to clinical doses of meropenem (2 g every 8 h as 3 h infusion),[9] cefiderocol (2 g every 8 h as 3 h infusion)[10] and tobramycin (7 mg/kg as 0.5 h infusion)[11–13] based on unbound (free) exposures.
(§4) At predefined timepoints (shown in Figures 1–3), groups of six mice had blood sampled via retro-orbital bleeding (two time points, under anaesthesia with isoflurane 2%–3% v/v in 100% oxygen via inhalation) and/or cardiac puncture (one terminal time point). Proparacaine hydrochloride ophthalmic solution 0.5% was applied to the eye (1–2 drops) after blood sampling via retro-orbital bleeding. The volume of blood collected was 0.15 mL per sample via retro-orbital bleeding with subsequent fluid replacement using 0.2 mL normal saline given IP. Mice were euthanized by CO2 exposure before cardiac puncture. Following blood collection by cardiac puncture, but before cervical dislocation, bronchoalveolar lavage (BAL) fluid was collected from the mice at the same time points. A catheter was inserted into the trachea of the mice, and lungs were lavaged with four separate aliquots of 0.4 mL of normal saline. The BAL fluid was withdrawn immediately after injection and pooled for each animal. Pooled BAL was centrifuged for 10 min at 4°C and the supernatant was collected for analysis.
(§5) Drug concentrations in ELF were estimated by correcting the drug concentration in BAL fluid for the dilution with normal saline during lung lavage using the following formula: compoundELF = compoundBAL × (ureaplasma/ureaBAL), where compoundBAL is the measured drug concentration in the BAL fluid sample and ureaplasma and ureaBAL are the concentrations of urea in paired plasma and BAL fluid samples from each mouse, respectively. Owing to the lack of albumin in BAL fluid, total ELF concentrations were considered unbound.
(§6) Statistical outliers for each respective analyte were removed by the interquartile range method. Previously reported meropenem, cefiderocol and plazomicin (an aminoglycoside similar to tobramycin) plasma HSRs developed in alternative murine models were used as a baseline.[19],[20] Mathematical modifications were made to the baseline regimens as necessary to achieve translational exposures in the COMBINE model and repeat confirmatory PK studies were undertaken for both plasma and ELF.

[2] = cited from earlier work
[3] = cited from earlier work; remark: listed apart in the source
[4] = Plasma pharmacokinetics in the COMBINE murine neutropenic pneumonia model; conditions: for k el: female, CD-1, mouse, plasma, sc; for K a (absorption rate constant into central compartment) / V plasma (volume of distribution in central compartment): best-fit one-compartment model
Procedure: as §1, §2, §3, §4, §5, §6

clinical = conditions: human, in vivo
Procedure: as §3

[5] = Ex vivo tobramycin plasma protein binding in mice; assay type: in vitro ADME; conditions: mouse plasma; for fraction unbound at 1 h: subcutaneous
Procedure: Escalating single doses of tobramycin (2.5, 5 and 10 mg/kg) were administered subcutaneously to determine tobramycin plasma protein binding. Triplicate pooled plasma and ultrafiltrate samples were collected at 1 h (5 mice per replicate, 15 mice per dose) and stored at −80°C until concentration determination. Whole blood was collected in K2EDTA tubes and then subsequently centrifuged at 4°C at 3000g for 10 minutes. Plasma was separated (total plasma) and 900 µL was added to an ultrafiltration device (Centrifree®, Merck Millipore Ltd, Ireland) and centrifuged using a fixed rotor at 10°C at 2000g for an additional 45 minutes to obtain protein free ultrafiltrate. The triplicate free and total tobramycin concentrations were averaged and then free fractions were calculated using the equation: free fraction = concentrationultrafiltrate/concentrationtotal plasma.
Mean percentages of protein binding (±standard deviation) were 27.1% (2.9%), 20.5% (9.3%) and 19.8% (1.5%) at the 1-h timepoint after receiving doses of 2.5, 5 and 10 mg/kg, respectively.

[6] = set-up: method as in PMID 33371322, PMID 31724042, PMID 15107149; conditions: cited from earlier work
K. pneumoniae CDC 851 = tested on: K. pneumoniae CDC 851; set-up: method as in earlier work; conditions: cited from earlier work
[7] = human ELF, 2 g every 8 h as a 3 h infusion
[8] = human plasma, 2 g every 8 h as a 3 h infusion
[9] = human, 7 mg/kg as 0.5 h infusion

Q: What does the source list for C[C@@H](O)[C@H]1C(=O)N2C(C(=O)O)=C(S[C@@H]3CN[C@H](C(=O)N(C)C)C3)[C@H](C)[C@H]12 [Meropenem, meropenem]?
A: k el [1]: 0.000694 s⁻¹; %fT > MIC for a MIC of 1 µg/mL ([1]; mouse ELF, ELF HSR): 78%; %fT > MIC for a MIC of 2 µg/mL ([1]; mouse ELF, ELF HSR): 62%; %fT > MIC for a MIC of 4 µg/mL ([1]; mouse ELF, ELF HSR): 43%; %fT > MIC for a MIC of 8 µg/mL ([1]; mouse ELF, ELF HSR): 14%; %fT > MIC for a MIC of 16 µg/mL ([1]; mouse ELF, ELF HSR): 3%; %fT > MIC for a MIC of 32 µg/mL ([1]; mouse ELF, ELF HSR): 0%; %fT > MIC for a MIC of 64 µg/mL ([1]; mouse ELF, ELF HSR): 0%; %fT > MIC for a MIC of 128 µg/mL ([1]; mouse ELF, ELF HSR): 0%; K a-ELF (absorption rate constant into ELF compartment) ([1]; mouse ELF): 7.00 h⁻¹; V ELF (volume of distribution in ELF compartment) ([1]; mouse ELF): 1.60 L/kg; %fT > MIC for a MIC of 1 µg/mL [2, 7]: 90%; %fT > MIC for a MIC of 2 µg/mL [2, 7]: 71%; %fT > MIC for a MIC of 4 µg/mL [2, 7]: 50%; %fT > MIC for a MIC of 8 µg/mL [2, 7]: 16%; %fT > MIC for a MIC of 16 µg/mL [2, 7]: 0%; %fT > MIC for a MIC of 32 µg/mL [2, 7]: 0%; %fT > MIC for a MIC of 64 µg/mL [2, 7]: 0%; %fT > MIC for a MIC of 128 µg/mL [2, 7]: 0%; %fT > MIC for a MIC of 1 µg/mL [3, 8]: 100%; %fT > MIC for a MIC of 2 µg/mL [3, 8]: 100%; %fT > MIC for a MIC of 4 µg/mL [3, 8]: 100%; %fT > MIC for a MIC of 8 µg/mL [3, 8]: 78%; %fT > MIC for a MIC of 16 µg/mL [3, 8]: 50%; %fT > MIC for a MIC of 32 µg/mL [3, 8]: 19%; %fT > MIC for a MIC of 64 µg/mL [3, 8]: 0%; %fT > MIC for a MIC of 128 µg/mL [3, 8]: 0%; k el [4]: 0.00754 s⁻¹; K a (absorption rate constant into central compartment) ([4]; mouse plasma): 1.34 h⁻¹; V plasma (volume of distribution in central compartment) ([4]; mouse plasma): 0.04 L/kg; %fT > MIC for a MIC of 1 µg/mL ([4]; mouse plasma, plasma HSR): 100%; %fT > MIC for a MIC of 2 µg/mL ([4]; mouse plasma, plasma HSR): 100%; %fT > MIC for a MIC of 4 µg/mL ([4]; mouse plasma, plasma HSR): 94%; %fT > MIC for a MIC of 8 µg/mL ([4]; mouse plasma, plasma HSR): 75%; %fT > MIC for a MIC of 16 µg/mL ([4]; mouse plasma, plasma HSR): 55%; %fT > MIC for a MIC of 32 µg/mL ([4]; mouse plasma, plasma HSR): 29%; %fT > MIC for a MIC of 64 µg/mL ([4]; mouse plasma, plasma HSR): 5%; %fT > MIC for a MIC of 128 µg/mL ([4]; mouse plasma, plasma HSR): 0%

Q: Which Kp (clinical) does the source give for NC[C@H]1O[C@H](O[C@H]2[C@H](O)[C@@H](O[C@H]3O[C@H](CO)[C@@H](O)[C@H](N)[C@H]3O)[C@H](N)C[C@@H]2N)[C@H](N)C[C@@H]1O [Tobramycin, tobramycin] here?
A: The Kp was 0.69.

Q: And the “ELF fAUC0-24” value (clinical; 7 mg/kg)?
A: Its value is 79000 ng·h/mL.

Q: And the “ELF fCmax” value (clinical; 7 mg/kg)?
A: The value was 6.8 mg/L.

Q: What about the k el [1] of the same compound?
A: The k el was 9.72e-05 s⁻¹.

Q: And the “K a-ELF (absorption rate constant into ELF compartment)” value ([1]; mouse ELF)?
A: The value was 1.74 h⁻¹.

Q: What about the “V ELF (volume of distribution in ELF compartment)” value ([1]; mouse ELF) of the same compound?
A: Its value is 0.79 L/kg.

Q: And the “ELF fAUC0-24” value ([1]; murine, ELF HSR)?
A: Its value is 76000 ng·h/mL.

Q: And the “ELF fCmax” value ([1]; murine, ELF HSR)?
A: The value was 6.6 mg/L.

Q: What about the AUCELF/AUCplasma penetration ratio ([2]; human, population PK analysis) of the same compound?
A: The AUCELF/AUCplasma penetration ratio was 0.64.

Q: And the “Unbound fraction in plasma” value ([5]; average of 2.5, 5 and 10 mg/kg)?
A: Its value is 77.6%.

Q: And the fraction unbound at 1 h ([5]; 1 h after 2.5 mg/kg subcutaneously, ultrafiltration, read-out: Mean percentage of protein binding (±standard deviation) (converted))?
A: The fraction unbound at 1 h was 0.729.

Q: What about the fraction unbound at 1 h ([5]; 1 h after 5 mg/kg subcutaneously, ultrafiltration, read-out: Mean percentage of protein binding (±standard deviation) (converted)) of the same compound?
A: Its fraction unbound at 1 h is 0.795.

Q: And the fraction unbound at 1 h ([5]; 1 h after 10 mg/kg subcutaneously, ultrafiltration, read-out: Mean percentage of protein binding (±standard deviation) (converted))?
A: The fraction unbound at 1 h was 0.802.

Q: What about the fraction unbound at 1 h ([5]; average of 2.5, 5 and 10 mg/kg, read-out: Plasma protein binding, average across the three doses (converted)) of the same compound?
A: Its fraction unbound at 1 h is 0.776.

Q: What about the “plasma fAUC0-24” value [3, 9] of the same compound?
A: The value was 103000 ng·h/mL.

Q: And the “plasma fCmax” value [3, 9]?
A: Its value is 18.3 mg/L.

Q: What about the “Human plasma protein binding” value [6] of the same compound?
A: Its value is 10%.

Q: What about the k el [4] of the same compound?
A: The k el was 8.61e-05 s⁻¹.

Q: And the “K a (absorption rate constant into central compartment)” value ([4]; mouse plasma)?
A: Its value is 23.68 h⁻¹.

Q: What about the “V plasma (volume of distribution in central compartment)” value ([4]; mouse plasma) of the same compound?
A: The value was 0.37 L/kg.

Q: What about the “plasma fAUC0-24” value ([4]; murine, plasma HSR) of the same compound?
A: Its value is 103000 ng·h/mL.

Q: What about the “plasma fCmax” value ([4]; murine, plasma HSR) of the same compound?
A: The value was 17.7 mg/L.

Q: What about the MIC (K. pneumoniae CDC 851) of the same compound?
A: Its MIC is 16 µg/mL (≈ 34.2 µM).
